We go through two compounds from US20060240986A1, “Herbicidal method” (Sumitomo Chemical Company, Limited, priority 2005, published 2006).

In data set [1] the test system is strawberry (Fragaria ananassa). The experiment in a line: Test Example 5, vegetable field: phytotoxicity. It counts as in vivo. Conditions: 40 g/ha active ingredient; transplanted seedlings; granules to soil surface the next day; 17 days in greenhouse. The source says: (§1) Plastic pots each having a diameter of 18 cm and depth of 14 cm were filled with upland soil, seedlings of strawberry (Fragaria ananassa) was transplanted and then seeded with giant foxtail (Setaria faberi).

A further data set relates to peanut (Arachis hypogea). Nature of the data set: Test Example 1, peanut field: phytotoxicity against crop. It counts as in vivo. To be noted: peanut seeded 7 days after application, examined 10 days after seeding. Here is the method:
(§2) Plastic pots each having a diameter of 18 cm and depth of 14 cm were filled with upland soil, and then seeded with yellow nutsedge (Cyperus esculentus), hemp sesbania (Seshania exaltata) and sicklepod (Cassia obtusifolia). In a greenhouse, they were grown for 12 days. Flumioxazin water dispersible granules (commercial name: Valor SX, produced by Valent U.S.A.), Imazosulfuron emulsifiable concentrate (produced by mixing well 5 parts of Imazosulfuron, 65 parts of cyclohexanone, 13 parts of Sorpol 2680 (Toho Chemical's product) and 17 parts of dimethylformamide) and a mixture of the Flumioxazin water dispersible granules and the Imazosulfuron emulsifiable concentrate were independently diluted in their designated amounts with water. Each dilution was uniformly sprayed over the test plants with a small sprayer. […] Further, the pots were seeded with peanut (Arachis hypogea) 7 days after the application, and the phytotoxicity against the crop was examined 10 days after the seeding.

A further data set concerns onion (Allium cepa). Nature of the data set: Test Example 2, vegetable field: phytotoxicity. It counts as in vivo. Conditions: 20 g/ha active ingredient; granules to soil surface the day after seeding; grown 29 days. The source says: (§3) Plastic pots each having a diameter of 18 cm and depth of 14 cm were filled with upland soil, and then seeded with barnyardgrass (Echinochloa crus-gall) and onion (Allium cepa).

The subject of data set [2] is giant foxtail (Setaria faberi). The experiment in a line: Test Example 5, vegetable field: herbicidal activity. The format is in vivo. To be noted: granules to soil surface the day after seeding, 17 days in greenhouse.
Excerpt: as §1

In data set [3] the test system is barnyardgrass (Echinochloa crus-gall). The experiment in a line: Test Example 2, vegetable field: herbicidal activity. It counts as in vivo, Echinochloa crus-galli. To be noted: granules to soil surface the day after seeding, grown 29 days.
Excerpt: as §3

Data set [4] deals with hemp sesbania (Seshania exaltata). Nature of the data set: Test Example 1, peanut field: herbicidal activity. The format is in vivo. To be noted: sprayed over plants grown 12 days, examined 7 days after application. Here is the method: as §2
Data set [5] has as its system yellow nutsedge (Cyperus esculentus). The experiment in a line: Test Example 1, peanut field: herbicidal activity. It counts as in vivo. Conditions: sprayed over plants grown 12 days, examined 7 days after application. Here is the method:
as §2

The test system of data set [6] is sicklepod (Cassia obtusifolia). Nature of the data set: Test Example 1, peanut field: herbicidal activity. It counts as in vivo. To be noted: sprayed over plants grown 12 days, examined 7 days after application. As for the experimental part:
as §2

The next data set deals with kudzu (Pueraria lobata). The experiment in a line: Test Example 12, non-cultivated land: herbicidal activity. The format is in vivo. Conditions: sprayed to soil surface the day after seeding, 14 days in greenhouse. The source says:
Plastic pots each having a diameter of 9 cm and depth of 7 cm were filled with upland soil, and then seeded with kudzu (Pueraria lobata).

SMILES strings stand for the structures.

Consider `C#CCN1C(=O)COc2cc(F)c(N3C(=O)C4=C(CCCC4)C3=O)cc21` [Flumioxazin, N-(7-fluoro-3,4-dihydro-3-oxo-4-prop-2-ynyl-2H-1,4-benzoxadin-6-yl)cyclohex-1-ene-1,2-dicarboxamide], for which, in [1], the Phtotoxicity strawberry entry is listed as “No damage”. For the same compound, the “Phytotoxicity against crop Peanut” value in the data set with peanut (Arachis hypogea) (30 g/ha active ingredient) and in the data set on peanut (Arachis hypogea) (60 g/ha active ingredient) was “No damage” in each case. For the same compound, in the data set on onion (Allium cepa), the “Phtotoxicity Onion” value is “No damage”. In addition, the “Herbicidal activity giant foxtail” value in data set [2] (40 g/ha active ingredient) was found to be 2. Also, in data set [3] (20 g/ha active ingredient), the “Herbicidal activity Barnyardgrass” value is 1. For the same compound, the “Herbicidal activity Se” value in [4] (30 g/ha active ingredient) and in data set [4] (60 g/ha active ingredient) was 1 throughout. Further, the “Herbicidal activity Ce” value in [5] (30 g/ha active ingredient) and in data set [5] (60 g/ha active ingredient) was 0 throughout. For the same compound, the “Herbicidal activity Co” value in data set [6] (30 g/ha active ingredient) was 0; in data set [6] (60 g/ha active ingredient), 1. Further, the Herbicidal activity kudzu in the data set on kudzu (Pueraria lobata) (100 g/ha active ingredient) is 1.
As for `COc1cc(OC)nc(NC(=O)NS(=O)(=O)c2c(Cl)nc3ccccn23)n1` [Imazosulfuron, 1-(2-chloroimidazo[1,2-a]pyridin-3-ylsulfonyl)-3-(4,6-dimethoxypyrimidin-2-yl)urea], the “Herbicidal activity giant foxtail” value worked out at 0 in [2] (50 g/ha active ingredient) and 1 in data set [2] (250 g/ha active ingredient). For the same compound, the “Herbicidal activity Barnyardgrass” value in data set [3] (50 g/ha active ingredient) was found to be 0. Also, the “Herbicidal activity Se” value in [4] (60 g/ha active ingredient) came out at 2; in data set [4] (120 g/ha active ingredient), 3. In addition, the “Herbicidal activity Ce” value in data set [5] (60 g/ha active ingredient) and in [5] (120 g/ha active ingredient) was 2 throughout. For the same compound, the “Herbicidal activity Co” value in data set [6] (60 g/ha active ingredient) and in data set [6] (120 g/ha active ingredient) was 1 each time. Besides, the results for the Herbicidal activity kudzu with kudzu (Pueraria lobata) (100 g/ha active ingredient) and in the data set on kudzu (Pueraria lobata) (500 g/ha active ingredient) were 1 and 2, respectively.
